Experimental data published in publication PMC5062470, “The mGluR2 positive allosteric modulator, SAR218645, improves memory and attention deficits in translational models of cognitive symptoms associated with schizophrenia” (Scientific Reports, 2016).

Target: human mGluR2 (Homo sapiens, UniProt Q14416)
Assay: Ca2+ mobilization assay, HEK293 cells expressing human mGluR2/Gα16
Format: cell-based
Parameters: expressed in transfected cells; host or cells: HEK293 Flp-in-T-REx (inducible), co-expressing Gα16

human mGluR2, sequence (Q14416 19-872): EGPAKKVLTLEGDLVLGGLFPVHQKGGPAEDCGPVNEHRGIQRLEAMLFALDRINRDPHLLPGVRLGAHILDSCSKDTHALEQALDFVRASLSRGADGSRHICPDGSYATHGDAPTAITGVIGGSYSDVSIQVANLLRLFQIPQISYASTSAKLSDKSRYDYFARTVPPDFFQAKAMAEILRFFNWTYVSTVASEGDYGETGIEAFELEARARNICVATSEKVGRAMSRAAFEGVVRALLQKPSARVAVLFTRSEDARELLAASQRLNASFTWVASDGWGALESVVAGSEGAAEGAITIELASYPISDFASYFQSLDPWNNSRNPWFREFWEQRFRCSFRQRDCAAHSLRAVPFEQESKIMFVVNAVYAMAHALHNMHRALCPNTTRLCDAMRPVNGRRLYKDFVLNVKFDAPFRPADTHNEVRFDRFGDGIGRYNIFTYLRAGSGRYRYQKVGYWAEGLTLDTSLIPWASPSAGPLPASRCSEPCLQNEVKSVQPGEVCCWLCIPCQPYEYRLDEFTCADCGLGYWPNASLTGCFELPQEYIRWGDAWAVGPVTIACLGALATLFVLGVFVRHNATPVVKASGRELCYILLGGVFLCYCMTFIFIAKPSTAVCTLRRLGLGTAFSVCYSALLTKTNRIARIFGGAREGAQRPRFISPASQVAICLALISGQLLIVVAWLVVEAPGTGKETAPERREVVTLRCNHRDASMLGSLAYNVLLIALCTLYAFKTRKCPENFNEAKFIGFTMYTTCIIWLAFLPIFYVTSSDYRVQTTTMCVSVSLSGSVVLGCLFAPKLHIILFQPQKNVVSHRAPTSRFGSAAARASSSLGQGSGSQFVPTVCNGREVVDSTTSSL

## CC1(C)CCc2cc(OC[C@@H]3Cn4ccc(=O)nc4O3)ccc21 [SAR218645, (S)-2-(1,1-dimethyl-indan-5-yloxymethyl)-2,3-dihydro-oxazolo[3,2-a]pyrimidin-7-one]
  maximal potentiation of the glutamate response: approximately 10 fold
